In publication PMC6131205, “Controlling the regioselectivity and stereospecificity of FAD-dependent polyamine oxidases with the use of amine-attached guide molecules as conformational modulators” (Bioscience Reports, 2018):

How the values were obtained:
human recombinant APAO = molecular target: T1, human recombinant APAO (Homo sapiens, UniProt Q6QHF9); conditions: cited from earlier work
T1 construct: made in house

SMOX = SMOX (Homo sapiens, UniProt Q9NWM0); design: made in house; method as in PMID 17901051, PMID 16354669; conditions: cited from earlier work
Chain of SMOX (Q9NWM0 whole entry): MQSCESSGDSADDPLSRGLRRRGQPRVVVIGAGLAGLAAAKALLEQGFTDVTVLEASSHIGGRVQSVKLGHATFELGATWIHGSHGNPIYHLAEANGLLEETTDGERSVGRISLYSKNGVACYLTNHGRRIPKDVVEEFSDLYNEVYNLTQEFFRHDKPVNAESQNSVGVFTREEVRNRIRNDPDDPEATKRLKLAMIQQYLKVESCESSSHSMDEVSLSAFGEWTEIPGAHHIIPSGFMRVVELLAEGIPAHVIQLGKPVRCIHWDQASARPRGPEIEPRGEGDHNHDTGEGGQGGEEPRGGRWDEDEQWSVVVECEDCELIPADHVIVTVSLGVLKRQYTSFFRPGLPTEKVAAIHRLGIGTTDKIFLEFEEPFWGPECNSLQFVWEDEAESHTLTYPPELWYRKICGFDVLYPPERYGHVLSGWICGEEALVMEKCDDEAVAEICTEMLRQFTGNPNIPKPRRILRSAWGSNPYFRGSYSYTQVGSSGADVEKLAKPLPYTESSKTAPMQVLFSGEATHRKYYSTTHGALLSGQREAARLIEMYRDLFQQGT

Fms1 = Fms1 (Saccharomyces cerevisiae, UniProt P50264); experiment: Substrate kinetics with recombinant Fms1 (HPLC of reaction products);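 further: recombinant polyamine oxidases incubated with substrate, product amines (putrescine, 1,3-diaminopropane or butane-1,3-diamine) quantified by HPLC after post-column o-phthalaldehyde derivatization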
Chain of Fms1 (P50264 whole entry): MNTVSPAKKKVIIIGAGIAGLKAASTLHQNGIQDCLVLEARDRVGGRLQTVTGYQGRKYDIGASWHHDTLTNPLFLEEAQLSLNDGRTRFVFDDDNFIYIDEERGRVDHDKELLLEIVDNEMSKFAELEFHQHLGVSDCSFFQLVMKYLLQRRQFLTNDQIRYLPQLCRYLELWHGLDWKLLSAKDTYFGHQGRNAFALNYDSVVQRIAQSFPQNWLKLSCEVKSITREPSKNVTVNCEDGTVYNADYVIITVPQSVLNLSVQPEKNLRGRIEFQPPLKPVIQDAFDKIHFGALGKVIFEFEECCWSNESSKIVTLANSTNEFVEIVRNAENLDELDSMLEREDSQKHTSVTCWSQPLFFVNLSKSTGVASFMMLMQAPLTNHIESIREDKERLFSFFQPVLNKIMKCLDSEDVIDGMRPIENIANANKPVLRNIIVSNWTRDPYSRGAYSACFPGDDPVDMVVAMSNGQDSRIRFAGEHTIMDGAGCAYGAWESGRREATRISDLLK
Method: HPLC with post-column o-phthalaldehyde-derivatization was used to determine the concentrations of the reaction products Put and 1,3-diaminopropane (DAP) or butane-1,3-diamine respectively as described in [30]. Fms1 activity was determined essentially as described for human recombinant APAO, but reactions were carried out in 100 mM Glycine-NaOH buffer at pH 9.0 in a water bath at +25°C [29, 30].
The reactions were carried out in 1 triplicate at pH 9.0 in 100 mM Glycine-NaOH at +25°C.
values for N -Ac-MeSpd enantiomers were determined by using substrate concentrations of 25, 50,
for Rac-MeSpd 30 min, (R)-MeSpd 20 min and (S)-MeSpd 40 minutes.
The reactions were carried out in triplicate at pH 9.0 in 100 mM Glycine-NaOH at +25°C.
values for MeSpd enantiomers were determined by using substrate concentrations of 100, 300, 600,
1000, 2000 and 4000 M. Recombinant Fms1 was 3.8 g/reaction and the incubation time 60
incubated for 30 min (half of the reaction time of an ordinary sample). E1 cleavage was monitored
by HPLC by measuring Put formation and E2 cleavage by determining butane-1,3-diamine content.

[1] = test system: amine oxidases in rat liver homogenates; experiment: Degradation in rat liver supernatant; type: in vitro ADME; conditions: 20 μM MDL 72527, 5 min preincubation
Method: A Wistar rat liver was frozen in liquid nitrogen. The liver was homogenized (1+3 w/v) with Teflon potter in buffer containing 25 mM Tris/HCl pH 7.4, 1 mM DTT and 0.1 mM EDTA. Resulting homogenate was centrifuged at 12000×g for 30 min at +4°C. Supernatant was divided into two portions and treated as follows: (A) incubated for 5 min at +37°C in a water bath, (B) supplemented with 20 μM MDL 72527 and incubated for 5 min at +37°C in a water bath to inactivate APAO and SMOX. A 20-μl aliquot of supernatant A or B was added in 100 mM Glycine-NaOH pH 9.5, 5 mM DTT with or without 100 μM of studied drug in a total volume of 180 μl. After 10-min incubation at +37°C, 20 μl of 50% sulphosalicylic acid (SSA) containing 100 μM diaminoheptane (DAH) was added to the reaction mixture. The samples were assayed with HPLC as described in [30].

T1 sequence (Q6QHF9 whole entry): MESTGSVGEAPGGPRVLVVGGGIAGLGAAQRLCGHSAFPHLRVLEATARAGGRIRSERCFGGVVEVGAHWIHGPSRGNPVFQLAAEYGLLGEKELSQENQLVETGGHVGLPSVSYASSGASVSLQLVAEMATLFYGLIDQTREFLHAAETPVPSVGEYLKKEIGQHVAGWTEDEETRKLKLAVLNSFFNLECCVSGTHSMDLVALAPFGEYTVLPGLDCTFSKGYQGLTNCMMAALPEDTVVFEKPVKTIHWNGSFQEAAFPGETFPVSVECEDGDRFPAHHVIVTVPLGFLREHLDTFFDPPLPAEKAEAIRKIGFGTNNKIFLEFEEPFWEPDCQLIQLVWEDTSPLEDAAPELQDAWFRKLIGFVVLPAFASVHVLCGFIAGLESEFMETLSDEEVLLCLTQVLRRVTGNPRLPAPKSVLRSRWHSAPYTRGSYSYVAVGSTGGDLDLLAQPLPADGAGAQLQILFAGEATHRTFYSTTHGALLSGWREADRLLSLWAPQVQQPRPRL

Structure (SMILES)	Specificity constant ratio SS/RR (human recombinant APAO; (S,S)-Me2Spm vs (R,R)-Me2Spm)	Specificity constant ratio SS/Spm (human recombinant APAO; (S,S)-Me2Spm vs Spm)	Specificity constant ratio SS/RR (SMOX; (S,S)-Me2Spm vs (R,R)-Me2Spm)	Specificity constant ratio SS/Spm (SMOX; (S,S)-Me2Spm vs Spm)	Specificity constant ratio SS/RR (Fms1; Fms1, (S,S)-Me2Spm vs (R,R)-Me2Spm)	Specificity constant ratio SS/Spm (Fms1; Fms1, (S,S)-Me2Spm vs Spm)	inhibition of analogue degradation in rat liver supernatant [1]
CC(N)CCNCCCCNCCC(C)N [(S,S)-Me2Spm, 2,13-diamino-5,10-diazatetradecane]	28	7.1	454	2.1	3.9	0.07	
C=C=CCNCCCCNCC=C=C [MDL72527]							Complete inhibition
